Laboratory results published in US20040121965A1, “Method of treating resistant tumors” (Wyeth Holdings Corporation, priority 2002, published 2004).
Where two headings read alike, the source gives them in different places.

Assays:
[1] = tested on: MX-1W tumor; test: Growth of tumors in nude mice, MX-1W xenograft; format: in vivo
Source text: 2.4. Growth of Tumors in Nude Mice.

[2] = tested on: KB-8-5 (MDR1+); test: Cell survival assay (SRB), KB-8-5 (MDR1+); details: for IC50: Homo sapiens
[3] = tested on: Human Melanoma Carcinoma Lox; details: staged LOX xenograft; at MTD ('<': MTD not achieved); days 11-15
Description: 2.4. Growth of Tumors in Nude Mice. […] In these experiments, xenografts are implanted subcutaneously into the flanks of nude mice. […] Relative tumor mass compared to controls are assessed during the 21-day post-staging period.
Groups of 5 female nu/nu mice are injected with 1.5×10^6 KB-3-1 (A) or Lox cells (B). […] Relative tumor growth is determined during the experiment and % T/C calculated. Statistical analyses are Student's t-test of treated time points vs. vehicle (*, P<0.05; **, P<0.01)

[4] = tested on: KB-3-1; test: Cell survival assay (SRB), KB-3-1; format: cell-based, human
In short: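 Cells were exposed in duplicate to serially diluted compound for 3 days, then fixed with 10% TCA (final) for 1 hr at 4 °C, stained 10 min with 0.04% SRB in 1% acetic acid, dissolved in 10 mM Trizma Base and read by absorbance. IC50 is the concentration inhibiting 50% of growth.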

[5] = tested on: KB-V1 (MDR1++); test: Cell survival assay (SRB), KB-V1 (MDR1++); details: for IC50: Homo sapiens
[6] = tested on: KB-V1 (MDR1++)
[7] = tested on: KB-8-5 (MDR1+)
[8] = tested on: KB-HTI-4.0; test: Cell survival assay, KB-3-1 line made resistant to Example 129 (KB-HTI-4.0); format: cell-based, human
Source text: Cells lines with previously known mechanisms of resistance. […] Res. 8: 207-218,1996); KB-3-1 (parental derived from an epidermoid carcinoma), KB-8.5, KB-V1 (Akiyama S-I, Fojo A, Hanover J A, Pastan I, Gottesman M M. Isolation and genetic characterization of human KB cell lines resistant to multiple drugs. Somatic Cell Mol. Gen., 11: 117-126,1985; Shen D-W, Cardarelli C, Hwang J, Cornwell M, Richert N, Ishii S, Pastan I, Gottesman MM. […] J. Biol. Chem., 261: 7762-7770, 1986); and HL-60 (parental derived from human leukemia) and HL60/AR (McGrath T., Center M. S. Adriamycin resistance in HL60 cells in the absence of detectable P-glycoprotein. Biochem. Res. Commun., 145:1171-1176,1987); A549 and A549.EpoB40 (He L., Yang C.-P.H., Horwitz S. B. Mutations in p-tubulin map to domains involved in regulation of microtubule stability in epothilone-resistant cell lines. Molecular Cancer Therapeutics. 1: 3-10, 2001). HCT-15 human colon carcinoma and DLD-1 human colon carcinoma are obtained from American Tissue Culture Collection. The MX-1W carcinoma is a Wyeth variant orginally obtained as MX-1 breast carcinoma from the National Cancer Institute. Cell lines selected for resistance to Representative Example 129. KB-3-1 cells are selected for resistance to Example 129 by chronically exposing cells to increasing concentrations of Example 129.
2.2. Cell Survival Assay: Standard Pharmacological Test Procedure. The concentration of candidate inhibitor required to inhibit 50% of cell growth (IC50) is done according to previously reported methods. […] Compounds are serially diluted into media as 2× stocks and 100 μl added to cells in duplicate. Compounds are incubated with cells for 3 days. At the end of the incubation period the sulforhodamine B (SRB) assay, which measures protein content as an assessment of cell survival, is performed as described previously (Skehan P, Storeng R, Scudiero D, Monks A, McMahon J, Vistica D, Warren J T, Bokesch H, Kenney S, Boyd MR. New calorimetric cytotoxicity assay for anticancer-drug screening. J Natl Cancer Inst 1990 Jul 4;82(13):1107-12) with some modification as follows. For KB-3-1 cells with 20% FCS, media is gently decanted and replaced with 200 μl of serum-free media mixed with cold 50% TCA for a final concentration of 10% TCA. The plates are incubated for 1 hr at 4° C., followed by washing 5 times in cold distilled water, then air dried overnight. The fixed cells are stained for 10 min with 80 μl of 0.04% SRB solution prepared in 1% glacial acetic acid. Stain is discarded and plates washed 5 times in 1% glacial acetic acid, then air-dried until completely dry. Stained cell product is dissolved in 150 μl of 10 mM Trizma Base and placed on a shaker for 20 minutes until fully dissolved. Absorbance is read on a Victor V multi-label plate reader (Perkin Elmer, Gaithersburg, Md.).
Cells are selected for resistance to Example 129 to understand the frequency and mechanistic basis of resistance.

[9] = tested on: KB-PTX-15+099; test: Cell survival assay, KB-PTX-15+099 (paclitaxel-resistant, non-MDR); format: cell-based, human
[10] = Homo sapiens, KB 3-1, 72 h, amount of drug needed to kill 50% of cells after three days continuous exposure, Table 11, read-out: IC50 in parental cell line KB-3-1
[11] = KB-3-1 cells (paclitaxel-sensitive parent), read-out: In vitro IC50 (nM) KB-3-1

With `CN[C@H](C(=O)N[C@H](C(=O)N(C)[C@H](/C=C(\C)C(=O)O)C(C)C)C(C)(C)C)C(C)(C)c1cccc(C)c1` [Example 8, N,β,β,3-Tetramethyl-L-phenylalanyl-N^1-[(1S,2E)-3-carboxy-1-isopropyl-2-butenyl]-N^1,3-dimethyl-L-valinamide] the “effect on growth of MX-1W (paclitaxel-resistant) tumor” value ([1]; mouse, in vivo) was “inhibited the growth”, the “Activity in nude mice animal model (% T/C @ MTD on days 11-15) MX-1W” value ([1]; staged MX-1W xenograft, at MTD, days 11-15) was 9% and the “Ratio KB85/KB” value [2] was 2.6. The IC50 ([2]; MDR1, read-out: In vitro IC50 (nM) KB85) was 0.699 nM, the “Activity in nude mice animal model (% T/C @ MTD on days 11-15) LOX” value [3] was 2% and the IC50 [4, 10] was 0.3 nM. The IC50 ([4]; Homo sapiens, KB 3-1, KB-3-1 cells (paclitaxel-sensitive parent), read-out: In vitro IC50 (nM) KB-3-1) was 0.274 nM, the “Ratio KBV1/KB” value [5] was 68.5 and the IC50 ([5]; read-out: In vitro IC50 (nM) KBV1) was 18.7 nM.
Molecule “(2E,4S)-2,5-dimethyl4-(methyl{(2S)-2-[(N,β,1-trimethyl-L-phenylalanyl)amino]butanoyl}amino)hex-2-enoic Acid Trifluoroacetic Acid [Example 99]” has an IC50 [4, 11] of 60 nM, an IC50 [6] of 1320 nM and an IC50 [7] of 87 nM.
In the case of “(2E,4S)4-[{(2R)-2-cyclohexyl-2-[(N,β,1-trimethyl-L-phenylalanyl)amino]ethanoyl}(methyl)amino]-2,5-dimethylhex-2-enoic Acid Trifluoroacetic Acid [Example 98]”, the IC50 [4, 11] is reported as 133 nM, the IC50 [6] is reported as 2940 nM and the IC50 [7] is reported as 186 nM.
For `CCN(C(=O)[C@@H](NC(=O)[C@@H](NC)C(C)(C)c1ccccc1)C(C)C)[C@H](/C=C(\C)C(=O)O)C(C)C.O=C(O)C(F)(F)F` [Example 95, N,β,β-trimethyl-L-phenylananyl-N^1-[(1S,2E)-3-carboxy-1-isopropylbut-2-enyl]-N^1-ethyl-L-valinamide Trifluoroacetic Acid], the “Ratio KB85/KB” value [2] was 2.1, the IC50 [4, 11] was 38.6 nM and the IC50 [6] was 2550 nM. For the same molecule, the IC50 [7] was 82 nM and the “Ratio KBV1/KB” value [5] was 66.0.
With `CN[C@H](C(=O)N[C@@H](CCC(=O)O)C(=O)N(C)[C@H](/C=C(\C)C(=O)O)C(C)C)C(C)(C)c1ccccc1` [Example 139, N,β,β-trimethyl-L-phenylalanyl-N^1-[(1S,2E)-3-carboxy-1-isopropyl-2-butenyl]-N^1-methyl-L-alpha-glutamine] the “Ratio KB85/KB” value [2] was 1.9, the IC50 [4, 11] was 503 nM and the IC50 [6] was no less than 3000 nM. For the same molecule, the IC50 [7] was 975 nM and the “Ratio KBV1/KB” value [5] was 6.0.
With “(E,4S)-4-[((2S)-3,3-dimethyl-2-{[(2S)-3-methyl-2-(methylamino)-3-(1-methyl-1H-ethyl-1H-indol-3-yl)butanoyl]amino}butanoyl)amino]-2,5-dimethyl-2-hexenoic Acid [Example 132]” the IC50 [4, 11] was 0.51 nM and the IC50 [6] was 890 nM.
`CCOC(=O)/C(C)=C/[C@H](C(C)C)N(C)C(=O)[C@@H](NC(=O)[C@H](NC)C(C)(C)c1ccc(C)c(C)c1)C(C)(C)C` [Example 13b, N,β,β-3,4-pentamethyl-D-phenylalanyl-N^1-[(1S,2E)4-ethoxy-1-isopropyl-3-methyl4-oxo-2-butenyl]-N^1,3-dimethyl-L-valinamide] was tested, and the “Ratio KB85/KB” value [2] was 4.8, the IC50 [4, 11] was 295 nM and the IC50 [6] was no less than 3000 nM. For the same molecule, the IC50 [7] was 1410 nM and the “Ratio KBV1/KB” value [5] was 10.2.
In the case of `CN[C@H](C(=O)N[C@H](C(=O)N(C)[C@H](/C=C(\C)C(=O)O)C(C)C)C(C)(C)C)C(C)(C)c1ccccc1` [Example 134, (E,4S)-4-[((2S)-3,3-dimethyl-2-{[(2S)-3-methyl-2-(methylamino)-3-phenylbutanoyl]amino}butanoyl)(methyl)amino]-2,5-dimethyl-2-hexenoic Acid], the “Ratio KB85/KB” value [2] is reported as 1.4, the IC50 ([4]; read-out: In vitro IC50 (nM) KB-3-1) is reported as 28 nM and the IC50 ([6]; human) is reported as 879 nM. For the same molecule, the IC50 ([7]; human) was 39 nM and the “Ratio KBV1/KB” value [5] was 31.3.
With “N,β,β-trimethyl-L-phenylalanyl-N^1-{(1S,2E)-4-[[(1S,2E)-3-carboxy-1-isopropylbut-2-enyl](methyl)amino]-1-isopropyl-3-methyl-4-oxobut-2-enyl-N^1,3-dimethyl-L-valinamide [Example 114]” the “Ratio KB85/KB” value [2] was 3.5, the IC50 [4, 11] was 55 nM and the IC50 [6] was greater than 3000 nM. The IC50 [7] was 192 nM.
For `CN[C@@H](C(=O)N[C@H](C(=O)N(C)[C@H](/C=C(\C)C(=O)O)C(C)C)C(C)(C)C)C(C)(C)c1ccc(OC(C)C)cc1` [Example 69, 0-isopropyl-N,β,β-trimethyl-D-tyrosyl-N^1-[(1S,2E)-3-carboxy-1-isopropylbut-2-enyl]-N^1,3-dimethyl-L-valinamide], the “Ratio KB85/KB” value [2] was 2.8, the IC50 [4, 11] was 55 nM and the IC50 [6] was 2340 nM. For the same molecule, the IC50 [7] was 151 nM and the “Ratio KBV1/KB” value [5] was 42.6.
With `CC(=O)O[C@@]12CO[C@@H]1C[C@H](O)[C@@]1(C)C(=O)[C@H](O)C3=C(C)[C@@H](OC(=O)[C@H](O)[C@@H](NC(=O)OC(C)(C)C)c4ccccc4)C[C@@](O)([C@@H](OC(=O)c4ccccc4)[C@H]21)C3(C)C` [docetaxel, reference compound] the IC50 ([8]; Homo sapiens, KB-3-1 line made resistant to Example 129, Table 8, read-out: KB-HTI-4.0 IC50) was 1.25 ± 0.76 nM, the “(RR) relative resistance vs. parental cells” value ([8]; KB-HTI-4.0 vs KB-3-1) was “(3)” and the IC50 ([2]; MDR1, read-out: KB-8-5 (MDR1+) IC50, nM (N)) was 9.7 ± 6.6 nM. The “RR, relative resistance” value ([2]; IC50 KB-8-5 / IC50 KB-3-1, Table 3) was 18, the “resistance of KB-8-5 cells” value ([2]; KB-8-5 (KB-85) vs KB-3-1, in vitro) was 18 fold and the IC50 [4, 10] was 0.6 nM. For the same molecule, the IC50 ([4]; Homo sapiens, KB-3-1, Table 6, read-out: KB-3-1 IC50) was 0.594 ± 0.098 nM, the IC50 ([4]; Homo sapiens, KB-3-1 parental, Table 3, read-out: KB-3-1 IC50, nM (N)) was 0.55 ± 0.45 nM and the IC50 ([4]; Homo sapiens, KB-3-1 parental, Table 8, read-out: KB-3-1 IC50) was 0.44 ± 0.2 nM. For the same molecule, the IC50 ([9]; Homo sapiens, KB-PTX-15+099, Table 6, read-out: KB-PTX-15+099 IC50) was 4.49 ± 1.91 nM, the “Average Relative Resistance (RR)” value ([9]; IC50 KB-PTX-15+099 / IC50 KB-3-1, less than 1 = increased sensitivity) was “(7.6)” and the “resistance of KB-PTX-15+099 cells” value ([9]; vs KB-3-1) was 7.6 fold. For the same molecule, the IC50 ([5]; read-out: KB-V1 (MDR1++) IC50, nM (N)) was 368 ± 257 nM and the “RR, relative resistance” value ([5]; IC50 KB-V1 / IC50 KB-3-1, Table 3) was 669.
